Experimental data from patent US20120040009A1, “PARTICULATE PHARMACEUTICAL COMPOSITION WITH AN OPIOID AND AN OPIOID ANTAGONIST” (priority 2009, published 2012).

Settings: non-opioid-dependent patients; intravenous administration of 200 mg morphine

C=CCN1CC[C@]23c4c5ccc(O)c4O[C@H]2C(=O)CC[C@@]3(O)[C@H]1C5 [naloxone, (5R,9R,13S,14S)-17-allyl-3,14-dihydroxy-4,5-epoxymorphinan-6-on]
naloxone sufficient to trigger discrete withdrawal symptoms: 0.4 mg
